# pEC50: −log10 of the molar value.
# How the values were obtained:
# [1] = system: Primary human fibroblasts derived from IPF patients (LL29 cells) treated with TGF-β1; experiment: Inhibition of the fibrotic process: αSMA staining in TGF-β1-treated primary human fibroblasts from IPF patients (LL29 cells); type: cell-based; details: Fibroblast, 96 h; for pEC50: % αSMA-positive LL29 cells, TGF-β1 20 ng/mL, 4 days; for inhibition at 10 µM: given where EC50 >10 μM, αSMA, LL29 cells, TGF-β1, 4 days, read-out: percent inhibition at 10 μM
# Summary of the method: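 LL29 IPF-patient fibroblasts in 1% FBS stimulated with TGF-β1 (20 ng/mL) and compound (10 μM–1.87 nM, 0.1% DMSO) for 4 days at 37 °C. SYTOX-positive cells excluded; % αSMA-positive cells imaged, normalized to TGF-β1/DMSO wells; EC50 by nonlinear regression, else % inhibition at 10 μM.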
# SW480 colon cancer cells = experiment: Cell viability assay (CellTiter-Blue) in SW480 colon cancer cells; type: cell-based; details: Homo sapiens, 96 h, four days; for inhibition at 10 µM: given where EC50 >10 μM, read-out: percent inhibition at 10 μM; for pEC50: CellTiter-Blue
# Summary of the method: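 Approximately 2×10^3 SW480 cells per well are seeded with compound (8 points, threefold steps, top 10 μM) and incubated four days at 37 °C. CellTiter-Blue is then added for about 3 h and fluorescence read. Non-linear regression gives EC50; for values beyond 10 μM, percent inhibition at that concentration is listed.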
SMILES,pEC50 [1],inhibition at 10 µM (SW480 colon cancer cells),pEC50 (SW480 colon cancer cells),inhibition at 10 µM [1]
"CCC(=O)Nc1cncc(-c2ccc3[nH]nc(-c4cc5c(-c6cccc(F)c6)cccc5[nH]4)c3c2)c1 [Compound 1, N-(5-(3-(4-(3-Fluorophenyl)-1H-indol-2-yl)-1H-indazol-5-yl)pyridin-3-yl) propionamide]",5.28,13.3%,< 5.00,
"Fc1cccc(-c2cccc3[nH]c(-c4n[nH]c5ccc(-c6cccnc6)cc45)cc23)c1 [Compound 4, 3-(4-(3-Fluorophenyl)-1H-indol-2-yl)-5-(pyridin-3-yl)-1H-indazole]",< 5.00,3.7%,< 5.00,10.4%
"CN(C)Cc1cncc(-c2ccc3[nH]nc(-c4cc5c(-c6cccc(F)c6)cccc5[nH]4)c3c2)c1 [Compound 13, 1-(5-(3-(4-(3-Fluorophenyl)-1H-indol-2-yl)-1H-indazol-5-yl)pyridin-3-yl)-N,N-dimethylmethanamine]",6.52,,6.31,
"CCCC(=O)Nc1cncc(-c2ccc3[nH]nc(-c4cc5c(-c6cccc(F)c6)cccc5[nH]4)c3c2)c1 [Compound 17, N-(5-(3-(4-(3-Fluorophenyl)-1H-indol-2-yl)-1H-indazol-5-yl)pyridin-3-yl) butyramide]",< 5.00,12.9%,< 5.00,0%
"O=C(Nc1cncc(-c2ccc3[nH]nc(-c4cc5c(-c6cccc(F)c6)cccc5[nH]4)c3c2)c1)C1CC1 [Compound 20, N-(5-(3-(4-(3-Fluorophenyl)-1H-indol-2-yl)-1H-indazol-5-yl)pyridin-3-yl) cyclopropanecarboxamide]",5.34,15.6%,< 5.00,
"O=C(Nc1cncc(-c2ccc3[nH]nc(-c4cc5c(-c6cccc(F)c6)cccc5[nH]4)c3c2)c1)C1CCCCC1 [Compound 23, N-(5-(3-(4-(3-Fluorophenyl)-1H-indol-2-yl)-1H-indazol-5-yl)pyridin-3-yl) cyclohexanecarboxamide]",5.48,20.2%,< 5.00,
"Fc1cccc(-c2cccc3[nH]c(-c4n[nH]c5ccc(-c6ccccn6)cc45)cc23)c1 [Compound 28, 3-(4-(3-Fluorophenyl)-1H-indol-2-yl)-5-(pyridin-2-yl)-1H-indazole]",5.17,17.1%,< 5.00,
"CC(C)CC(=O)Nc1cncc(-c2ccc3[nH]nc(-c4cc5c(-c6ccc(F)cc6)cccc5[nH]4)c3c2)c1 [Compound 30, N-(5-(3-(4-(4-Fluorophenyl)-1H-indol-2-yl)-1H-indazol-5-yl)pyridin-3-yl)-3-methylbutanamide]",5.60,38.2%,< 5.00,
"CC(C)(C)C(=O)Nc1cncc(-c2ccc3[nH]nc(-c4cc5c(-c6ccc(F)cc6)cccc5[nH]4)c3c2)c1 [Compound 36, N-(5-(3-(4-(4-Fluorophenyl)-1H-indol-2-yl)-1H-indazol-5-yl)pyridin-3-yl) pivalamide]",5.48,50.4%,< 5.00,
"O=C(Nc1cncc(-c2ccc3[nH]nc(-c4cc5c(-c6ccc(F)cc6)cccc5[nH]4)c3c2)c1)c1ccccc1 [Compound 39, N-(5-(3-(4-(4-Fluorophenyl)-1H-indol-2-yl)-1H-indazol-5-yl)pyridin-3-yl) benzamide]",5.90,,5.42,
"CN(C)Cc1cncc(-c2ccc3[nH]nc(-c4cc5c(-c6ccc(F)cc6)cccc5[nH]4)c3c2)c1 [Compound 41, 1-(5-(3-(4-(4-Fluorophenyl)-1H-indol-2-yl)-1H-indazol-5-yl)pyridin-3-yl)-N,N-dimethylmethanamine]",5.24,10%,< 5.00,
"Fc1ccc(-c2cccc3[nH]c(-c4n[nH]c5ccc(-c6cncc(CN7CCCC7)c6)cc45)cc23)cc1 [Compound 42, 3-(4-(4-Fluorophenyl)-1H-indol-2-yl)-5-(5-(pyrrolidin-1-ylmethyl)pyridin-3-yl)-1H-indazole]",5.68,42.4%,< 5.00,
"CC(C)(C)CC(=O)Nc1cncc(-c2ccc3[nH]nc(-c4cc5c(-c6ccc(F)cc6)cccc5[nH]4)c3c2)c1 [Compound 44, N-(5-(3-(4-(4-Fluorophenyl)-1H-indol-2-yl)-1H-indazol-5-yl)pyridin-3-yl)-3,3-dimethylbutanamide]",5.30,23.1%,< 5.00,
"CCCC(=O)Nc1cncc(-c2ccc3[nH]nc(-c4cc5c(-c6ccc(F)cc6)cccc5[nH]4)c3c2)c1 [Compound 45, N-(5-(3-(4-(4-Fluorophenyl)-1H-indol-2-yl)-1H-indazol-5-yl)pyridin-3-yl)butyramide]",5.26,5.3%,< 5.00,
"Fc1ccc(-c2cccc3[nH]c(-c4n[nH]c5ccc(-c6cncnc6)cc45)cc23)cc1 [Compound 55, 3-(4-(4-Fluorophenyl)-1H-indol-2-yl)-5-(pyrimidin-5-yl)-1H-indazole]",5.21,26.3%,< 5.00,
"Nc1cncc(-c2ccc3[nH]nc(-c4cc5c(-c6ccccc6F)cccc5[nH]4)c3c2)c1 [Compound 59, 5-(3-(4-(2-Fluorophenyl)-1H-indol-2-yl)-1H-indazol-5-yl)pyridin-3-amine]",6.22,,5.89,
"CCNCc1cncc(-c2ccc3[nH]nc(-c4cc5c(-c6ccccc6F)cccc5[nH]4)c3c2)c1 [Compound 62, N-((5-(3-(4-(2-Fluorophenyl)-1H-indol-2-yl)-1H-indazol-5-yl)pyridin-3-yl)methyl)ethanamine]",5.12,44.5%,< 5.00,
"CC(C)(C)CC(=O)Nc1cncc(-c2ccc3[nH]nc(-c4cc5c(-c6ccccc6F)cccc5[nH]4)c3c2)c1 [Compound 72, N-(5-(3-(4-(2-Fluorophenyl)-1H-indol-2-yl)-1H-indazol-5-yl)pyridin-3-yl)-3,3-dimethylbutanamide]",< 5.00,16.2%,< 5.00,0%
"O=C(Nc1cncc(-c2ccc3[nH]nc(-c4cc5c(-c6ccccc6F)cccc5[nH]4)c3c2)c1)C1CCCC1 [Compound 78, N-(5-(3-(4-(2-Fluorophenyl)-1H-indol-2-yl)-1H-indazol-5-yl)pyridin-3-yl) cyclopentanecarboxamide]",< 5.00,8.3%,< 5.00,3.7%
"CCC(=O)Nc1cncc(-c2ccc3[nH]nc(-c4cc5c(-c6cccnc6)cccc5[nH]4)c3c2)c1 [Compound 85, N-(5-(3-(4-(Pyridin-3-yl)-1H-indol-2-yl)-1H-indazol-5-yl)pyridin-3-yl) propionamide]",7.18,,6.32,
"c1cncc(-c2ccc3[nH]nc(-c4cc5c(-c6cccnc6)cccc5[nH]4)c3c2)c1 [Compound 88, 5-(Pyridin-3-yl)-3-(4-(pyridin-3-yl)-1H-indol-2-yl)-1H-indazole]",< 5.00,21.9%,< 5.00,17.3%
"CC(C)C(=O)Nc1cncc(-c2ccc3[nH]nc(-c4cc5c(-c6cccnc6)cccc5[nH]4)c3c2)c1 [Compound 93, N-(5-(3-(4-(Pyridin-3-yl)-1H-indol-2-yl)-1H-indazol-5-yl)pyridin-3-yl) isobutyramide]",5.91,,5.64,
"c1cncc(-c2cccc3[nH]c(-c4n[nH]c5ccc(-c6cncc(CN7CCCCC7)c6)cc45)cc23)c1 [Compound 99, 5-(5-(Piperidin-1-ylmethyl)pyridin-3-yl)-3-(4-(pyridin-3-yl)-1H-indol-2-yl)-1H-indazole]",< 5.00,6.5%,< 5.00,
"FC1(F)CCN(Cc2cncc(-c3ccc4[nH]nc(-c5cc6c(-c7cccnc7)cccc6[nH]5)c4c3)c2)C1 [Compound 110, 5-(5-((3,3-Difluoropyrrolidin-1-yl)methyl)pyridin-3-yl)-3-(4-(pyridin-3-yl)-1H-indol-2-yl)-1H-indazole]",5.00,20.3%,< 5.00,
"c1cncc(-c2cccc3[nH]c(-c4n[nH]c5ccc(-c6cncnc6)cc45)cc23)c1 [Compound 111, 3-(4-(Pyridin-3-yl)-1H-indol-2-yl)-5-(pyrimidin-5-yl)-1H-indazole]",6.07,,5.01,
"Cc1ccncc1-c1ccc2[nH]nc(-c3cc4c(-c5ccncc5)cccc4[nH]3)c2c1 [Compound 117, 5-(4-Methylpyridin-3-yl)-3-(4-(pyridin-4-yl)-1H-indol-2-yl)-1H-indazole]",< 5.00,20.9%,< 5.00,17.7%
"CCNCc1cncc(-c2ccc3[nH]nc(-c4cc5c(-c6ccncc6)cccc5[nH]4)c3c2)c1 [Compound 118, N-((5-(3-(4-(Pyridin-4-yl)-1H-indol-2-yl)-1H-indazol-5-yl)pyridin-3-yl)methyl)ethanamine]",6.05,,6.28,
"O=C(Cc1ccccc1)Nc1cncc(-c2ccc3[nH]nc(-c4cc5c(-c6ccncc6)cccc5[nH]4)c3c2)c1 [Compound 122, 2-Phenyl-N-(5-(3-(4-(pyridin-4-yl)-1H-indol-2-yl)-1H-indazol-5-yl)pyridin-3-yl)acetamide]",< 5.00,7.8%,< 5.00,0%
